Each structure is given as a SMILES string. Calls of active or inactive are those of the source. Rule as the data show it, for most assays here: actives have a measured EC50 and inactives only a lower limit.

The test system of assay [1] is BJ. Briefly: cytotoxicity toward BJ-TERT-LT-ST fibroblasts, dose response, cell-based, RAS-independent, luminescence (AID 1935).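 Also: BJ fibroblasts immortalized with TERT plus LT and ST oncogenes.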 It is filed as functional. To be noted: Homo sapiens.
Assay [2] deals with T1, Heat shock factor protein 1 (Mus musculus, UniProt P38532).
T1 sequence (P38532 whole entry): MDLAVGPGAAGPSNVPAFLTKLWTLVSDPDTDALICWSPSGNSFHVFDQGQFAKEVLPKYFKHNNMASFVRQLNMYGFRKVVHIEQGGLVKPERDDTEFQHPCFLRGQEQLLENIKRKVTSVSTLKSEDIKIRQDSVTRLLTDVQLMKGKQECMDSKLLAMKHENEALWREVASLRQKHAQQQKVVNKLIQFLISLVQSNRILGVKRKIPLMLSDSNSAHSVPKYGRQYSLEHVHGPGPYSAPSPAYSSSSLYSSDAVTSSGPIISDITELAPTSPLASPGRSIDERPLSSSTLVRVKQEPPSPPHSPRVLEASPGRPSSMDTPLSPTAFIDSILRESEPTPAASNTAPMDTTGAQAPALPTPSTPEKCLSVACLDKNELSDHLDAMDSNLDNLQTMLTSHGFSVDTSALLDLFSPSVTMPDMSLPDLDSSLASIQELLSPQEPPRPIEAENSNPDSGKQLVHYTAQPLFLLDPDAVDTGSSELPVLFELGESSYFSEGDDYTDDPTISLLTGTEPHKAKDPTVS
Briefly: inhibition of MG132-induced HSE-luciferase signal, confirmation, cell-based, NIH3T3, luminescence, dose retest (AID 2382).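 Also: NIH3T3 fibroblasts with HSF1-driven luciferase reporter stressed by proteasome inhibitor MG132; luminescence from HSF1-driven luciferase expression after 8 hours of MG132 stress.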 It is filed as functional.

Assay [3] has as its system BJ. Briefly: cells. It is filed as functional, cell-based. To be noted: Homo sapiens.
The nature of assay [4]: cytotoxicity toward DRD oncogenic fibroblasts, dose response, cell-based, non-viral oncogenic, luminescence (AID 1934). It is filed as functional. To be noted: Homo sapiens.
Assay [5] concerns BJ. Briefly: cytotoxicity toward BJ-TERT fibroblasts, dose response, cell-based, RAS-independent, luminescence (AID 1933). It is filed as functional. To be noted: Homo sapiens.
The target of assay [6] is Luciferin 4-monooxygenase (Photinus pyralis, UniProt P08659). Briefly: firefly luciferase enzyme inhibitors, dose response, biochemical, luminescence (AID 1891).
A short description of assay [7]: Luminescence Cell-Based Dose Confirmation HTS to Identify Inhibitors of Platelet Dense Granule Release. [Related pubchem assays: 1663 (Primary HTS), 1678 (Summary of Project)]. It is filed as functional.
Assay [8] can be described thus: cells. It is filed as functional, cell-based.
The nature of assay [9]: cells. It is filed as functional, cell-based. The source holds these as a separate data set.
The subject of a further assay is SN12K1. Briefly: cells. It is filed as functional.
A further assay has as its system P388/ADR. Briefly: cells. It is filed as functional.
The subject of the next assay is P388. Briefly: cells. It is filed as functional.
In assay [10] the target is T2, Histone-lysine N-methyltransferase NSD2 (Homo sapiens, UniProt O96028).
T2 sequence (O96028 whole entry): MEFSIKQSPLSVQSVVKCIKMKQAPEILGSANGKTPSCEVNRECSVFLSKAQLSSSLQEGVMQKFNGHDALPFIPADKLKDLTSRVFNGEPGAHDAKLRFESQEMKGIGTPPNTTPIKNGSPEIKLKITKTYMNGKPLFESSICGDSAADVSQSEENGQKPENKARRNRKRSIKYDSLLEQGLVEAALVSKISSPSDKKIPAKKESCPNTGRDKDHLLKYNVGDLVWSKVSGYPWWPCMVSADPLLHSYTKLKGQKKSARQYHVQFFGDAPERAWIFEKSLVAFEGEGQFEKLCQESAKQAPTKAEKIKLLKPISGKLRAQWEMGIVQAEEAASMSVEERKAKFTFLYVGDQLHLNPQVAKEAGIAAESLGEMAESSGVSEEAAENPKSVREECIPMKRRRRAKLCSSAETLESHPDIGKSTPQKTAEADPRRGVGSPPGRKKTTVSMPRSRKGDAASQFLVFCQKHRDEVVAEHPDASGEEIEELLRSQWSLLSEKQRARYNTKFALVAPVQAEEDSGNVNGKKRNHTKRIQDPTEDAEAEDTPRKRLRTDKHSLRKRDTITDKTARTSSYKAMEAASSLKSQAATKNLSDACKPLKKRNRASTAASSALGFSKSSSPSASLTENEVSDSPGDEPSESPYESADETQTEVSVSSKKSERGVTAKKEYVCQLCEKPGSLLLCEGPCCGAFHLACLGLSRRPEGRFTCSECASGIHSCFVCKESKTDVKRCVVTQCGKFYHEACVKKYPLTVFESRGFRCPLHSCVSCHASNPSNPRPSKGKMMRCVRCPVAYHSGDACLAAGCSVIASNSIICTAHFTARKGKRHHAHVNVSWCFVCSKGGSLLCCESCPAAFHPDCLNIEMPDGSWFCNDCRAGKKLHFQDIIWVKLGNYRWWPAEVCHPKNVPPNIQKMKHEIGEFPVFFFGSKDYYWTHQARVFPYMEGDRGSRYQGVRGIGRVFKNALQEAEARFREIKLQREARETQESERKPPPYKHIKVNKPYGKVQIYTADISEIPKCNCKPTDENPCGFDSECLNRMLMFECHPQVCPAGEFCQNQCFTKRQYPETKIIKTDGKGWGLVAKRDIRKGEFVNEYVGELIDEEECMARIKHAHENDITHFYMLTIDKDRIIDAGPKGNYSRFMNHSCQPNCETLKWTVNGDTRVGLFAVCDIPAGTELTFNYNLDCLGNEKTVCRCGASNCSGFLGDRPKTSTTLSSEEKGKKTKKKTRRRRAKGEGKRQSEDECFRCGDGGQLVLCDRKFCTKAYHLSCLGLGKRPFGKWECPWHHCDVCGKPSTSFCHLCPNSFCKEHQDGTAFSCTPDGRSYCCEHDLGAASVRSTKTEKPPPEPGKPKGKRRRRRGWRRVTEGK
It is filed as biochemical.

For assay [11], the target named is T3, Rac GTPase-activating protein 1 (Homo sapiens, UniProt Q9H0H5).
T3 sequence (Q9H0H5 whole entry): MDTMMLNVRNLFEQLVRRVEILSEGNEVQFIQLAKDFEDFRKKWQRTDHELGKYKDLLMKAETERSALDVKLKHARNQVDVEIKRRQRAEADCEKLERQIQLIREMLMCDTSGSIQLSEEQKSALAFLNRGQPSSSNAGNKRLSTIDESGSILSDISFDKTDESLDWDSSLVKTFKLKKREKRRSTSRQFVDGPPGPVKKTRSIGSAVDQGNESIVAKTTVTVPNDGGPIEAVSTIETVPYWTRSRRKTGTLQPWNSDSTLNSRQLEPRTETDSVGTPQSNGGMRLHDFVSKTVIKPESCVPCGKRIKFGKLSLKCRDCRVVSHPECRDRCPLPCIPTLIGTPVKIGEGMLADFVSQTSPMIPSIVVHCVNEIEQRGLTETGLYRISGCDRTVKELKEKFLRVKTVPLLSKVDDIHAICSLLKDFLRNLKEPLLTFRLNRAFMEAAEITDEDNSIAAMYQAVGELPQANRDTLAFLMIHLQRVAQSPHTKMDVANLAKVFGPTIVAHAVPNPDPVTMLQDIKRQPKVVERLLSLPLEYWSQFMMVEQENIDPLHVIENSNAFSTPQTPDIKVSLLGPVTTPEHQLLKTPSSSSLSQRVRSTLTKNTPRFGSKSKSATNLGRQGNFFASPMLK
Briefly: MgcRacGAP GTPase-activating activity inhibitors, confirmation, biochemical, ADP Hunter fluorescence, primary and confirmatory (AID 624330). It is filed as functional.

The nature of assay [12]: inhibitors of intracellular T. cruzi replication, confirmation, NIH3T3 host cells, beta-gal luminescence (AID 2044).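 Also: intracellular parasites grown in NIH/3T3 mouse fibroblasts as host cells; luminescent beta-galactosidase reporter signal from transgenic T. cruzi replicating inside host cells; inhibitors lower the luminescence signal.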 It is filed as functional, cell-based.
A short description of assay [13]: cytotoxicity toward NIH3T3 fibroblasts, dose response, counter-screen, cell-based, ATP luminescence, mouse fibroblasts (AID 2010).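 Also: cells exposed to compound for about 90 hours before reading.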 It is filed as functional. For orientation: The purpose of a counterscreen is to sort out artefacts and off-target activity.

Chain of Luciferin 4-monooxygenase (P08659 whole entry): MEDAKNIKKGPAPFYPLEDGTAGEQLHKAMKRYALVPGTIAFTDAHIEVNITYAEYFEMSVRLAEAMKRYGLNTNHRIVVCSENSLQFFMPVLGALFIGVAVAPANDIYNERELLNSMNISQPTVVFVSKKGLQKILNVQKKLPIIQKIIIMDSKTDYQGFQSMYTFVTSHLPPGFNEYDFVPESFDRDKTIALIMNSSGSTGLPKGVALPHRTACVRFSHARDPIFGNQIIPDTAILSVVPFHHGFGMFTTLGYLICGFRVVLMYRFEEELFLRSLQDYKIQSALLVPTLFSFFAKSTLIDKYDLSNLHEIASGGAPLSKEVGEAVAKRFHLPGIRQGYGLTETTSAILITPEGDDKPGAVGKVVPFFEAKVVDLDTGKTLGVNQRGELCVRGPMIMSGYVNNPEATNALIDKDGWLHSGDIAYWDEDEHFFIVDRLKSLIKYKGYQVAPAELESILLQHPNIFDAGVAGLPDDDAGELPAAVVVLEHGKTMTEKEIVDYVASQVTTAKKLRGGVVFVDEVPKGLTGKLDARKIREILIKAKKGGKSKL

Broadly, the EC50 is the concentration at which the effect is half-maximal. Take `O=C(O)c1ccc(CN2C(=O)c3cccc4c([N+](=O)[O-])ccc(c34)C2=O)cc1`: the EC50 in the assay with BJ [1] is 10.6 µM (inconclusive); in assay [2] it was 6.53 µM (active); in the assay on BJ [3] it was 12.9 µM (active); in [4] it was 10.9 µM (inconclusive); in the assay on BJ [5], 9.19 µM (active).

Take `C/C(=N/N=C/c1ccc(N(C)C)cc1)c1ccccc1`: the EC50 in the assay with BJ [1] is > 150 µM (not active); in the assay with BJ [3] it was 13.5 µM (active); in assay [4], 17.1 µM (active); in assay [6], 0.875 µM (active); in assay [7] it was 1.61 µM (active); with BJ [5], 26.5 µM (active).

With `Cn1c(N/N=C/c2cc3ccccc3nc2Cl)nc2ccccc21`, the 50% effective concentration (EC50) with BJ [1] was > 150 µM (not active); in “cells [8]”, > 350 µM (not active); in “cells [9]”, 7.59 µM (active); in the assay with BJ [3] it was 2.58 µM (active); in assay [4], 25.7 µM (active); in assay [6], 0.687 µM (active). The EC50 was 6.52 µM (active) in assay [7] and 6.15 µM (inconclusive) with BJ [5].

As a reminder, the GI50 is the concentration that inhibits growth by half. As for `O=C1N[C@@H]2C(=C[C@H](O)[C@@H](O)[C@H]2O)c2cc3c(c(O)c21)OCO3` [NARCICLASINE], the GI50 in the assay with SN12K1 (Homo sapiens, SN12K1) was 0.045 µM (active); in the assay with P388/ADR (Mus musculus, P388/ADR), 0.045 µM (active); with P388 (Mus musculus, P388), 0.045 µM (active).

Usually AC50 stands for the concentration at which the activity in the assay is half-maximal. For orientation: IC50 means the concentration at which inhibition is half-maximal. As for `CCOc1ccccc1N1CCN(C/C=C/c2ccc(N(C)C)cc2)CC1`, the AC50 in assay [10] is 15.5 µM (active). Moreover, the IC50 in [11] was 75.8 µM (active).

Take `O=C1c2cc(O)c(O)cc2OC(c2ccc(O)c(O)c2)C1O` (stereo unspecified): in [10], the AC50 is 12.9 µM (active).

On to `CC(C)NC(=O)OCc1c2c(n(C)c1COC(=O)NC(C)C)-c1ccccc1CC2`, for which the GI50 with SN12K1 (Homo sapiens, SN12K1) is 12 µM (inactive); in the assay on P388/ADR (Mus musculus, P388/ADR), 2 µM (inactive); in the assay on P388 (Mus musculus, P388) it was 1.79 µM (inactive).

With `CCCCCCc1ccc(O)cc1O` [HEXYLRESORCINOL], the GI50 with SN12K1 (Homo sapiens, SN12K1) is 37.5 µM (inactive); with P388/ADR (Mus musculus, P388/ADR), 45.2 µM (inactive); in the assay on P388 (Mus musculus, P388), 48.4 µM (inactive). Further, the EC50 is 0.781 µM (active) in assay [12] and > 30 µM (not active) in assay [13].

As for `Cc1c2cc[n+](C)cc2c(C)c2c1[nH]c1ccccc12`, the results for the GI50 in the assay with SN12K1, in the assay with P388/ADR and with P388 were 0.385 µM (active), 70 µM (inactive) and 1.12 µM (inactive), respectively.

Take `O=C1CNC(=O)N1` [HYDANTOIN]: the GI50 in the assay on SN12K1 (Homo sapiens, SN12K1) is > 1120 µM (inactive); with P388/ADR (Mus musculus, P388/ADR), 706 µM (inactive); in the assay on P388 (Mus musculus, P388), 630 µM (inactive).

With `CNCCNc1ccc2c3c(nn2CCNCCO)-c2c(O)ccc(O)c2C(=O)c13`, the GI50 in the assay with SN12K1 (Homo sapiens, SN12K1) is 0.0673 µM (active); with P388/ADR (Mus musculus, P388/ADR) it was 0.216 µM (active); in the assay with P388 (Mus musculus, P388), 0.000867 µM (active).

For `CC(=O)c1cccc(Nc2c3c(nc4ccccc24)CCC3)c1`, the EC50 in the assay with BJ [1] was 1.11 µM (active); with BJ [3] it was 30.6 µM (inconclusive); in assay [4], 0.898 µM (active); in the assay with BJ [5] it was 2.21 µM (active).

These data come from ChEMBL document CHEMBL1201862, “PubChem BioAssay data set” (2004).
